Measurements: patent US11406633B2, “Dosing schedule of a Wnt inhibitor and an anti-PD-1 antibody molecule in combination” (Novartis AG, priority 2017, dated 2022)
Read-outs that look alike come from different tables or passages of the source.

Legend:
[1] = determined within the CPDR001X2101 clinical study; cited from earlier work
tumor = experiment: other single-agent studies: cytotoxic gene signature and tumor efficacy; type: in vivo; details: alone as a single agent
From the text: (§1) Recently, the secreted glycoproteins R-spondins 1-4 (RSPO1-4) have emerged as important activators of canonical Wnt signaling. RSPOs bind to leucine-rich repeat-containing G-protein-coupled receptors (LGR4-6) and the transmembrane E3 ubiquitin ligases RING finger 43/zinc and RING finger 3 (RNF43/ZNRF3), forming a ternary complex (Chen et al. Genes Dev; 2013, 27, 1345). RNF43/ZNRF3 antagonize Wnt signaling by promoting the turnover of Fz and LRP6 (Hao et al. Nature 2012, 485 (7397), 195-200; Koo et al. Nature, 2012, 488 (7413), 665). Binding of RSPO induces the endocytosis of RNF43/ZNRF3, thereby increasing levels of membrane-bound Fz and LRP6 and enhancing Wnt ligand-mediated signaling. In order to activate signaling within target cells, Wnt proteins must be properly secreted and transported across the extracellular space. Porcupine is a membrane-bound-O-acyltransferase (MBOAT) that adds palmitoyl groups to Wnt proteins (Takada et al. Dev. Cell 2006, 11, 791). […] For example, the Wnt inhibitor of the present disclosure, namely 2-(2′,3-dimethyl-[2,4′-bipyridin]-5-yl)-N-(5-(pyrazin-2-yl)pyridin-2-yl)acetamide was tested and the levels of pLRP6 and AXIN2qPCR were analyzed in biopsies of skin and tumors.

[2] = system: tumor-immune microenvironment / WNT pathway (AXIN2); experiment: NanoString gene expression of paired tumor biopsies (screening vs on treatment), immune gene signatures fitted against AXIN2 change; type: in vivo, human; details: for relationship between AXIN2 inhibition and increased expression of the dendritic cell signature (CD103+) / relationship between AXIN2 inhibition and increased expression of the chemokine signature (CD8+ T-cell recruitment): log 2 fold-change screening to on-treatment, 9 paired samples; for relationship between AXIN2 inhibition and increased expression of the dendritic cell signature (CD103+): 15 days of exposure; for relationship between AXIN2 inhibition and increased expression of the chemokine signature (CD8+ T-cell recruitment): about 15 days of exposure
From the text: NanoString measures gene expression for a selected panel of up to about 1000 genes. This is executed using uniquely barcoded probes that hybridize directly to target RNAs (ribonucleic acids). The RNA-probe hybrids are then run out on a gel to linearize the barcodes. These barcodes are then counted and then normalized using an internally developed pipeline. […] Tumors were fixed in formalin and embedded in paraffin (FFPE) or directly placed in RNA Later. These samples were transferred to Genoptix where RNA was isolated for real time qPCR analyses of the pharmacodynamics (PD) marker AXIN2. Remnant RNA was transferred to the assay research laboratory (ARL) where gene expression was profiled using (2016) NanoString pan-cancer immune profiling panel as well as a custom design panel of immune-related genes. Gene expression was normalized using methods recommended by NanoString, with the exception that samples were normalized within specific indications (e.g. melanoma or pancreatic cancer samples were normalized separately) and housekeeping genes were selected using the geNorm stability metric [PMID: 12184808]. Certain genes overlapped between both panels, which we used to assess variability and other quality control parameters. […] The count data described herein was normalized according to the methods recommended by NanoString with one exception, namely that the samples were normalized within the specific indications as described herein and approximately 40 housekeeping genes (defined on the NanoString website for their commercially available cancer immune panel, 2016) were used for biological normalization across samples. Gene signatures were used before to probe the data for phenotypic changes in the tumor-immune microenvironment. It has been previously shown that in genetically engineered mice with activated WNT signaling the dendritic cells and T-cells in the tumor microenvironment are inhibited; however, it has not been shown that this effect is reversible. Therefore, our objective was to use gene expression analyses in samples from the patients treated with the Wnt inhibitor to determine the extent to which the inhibitory effects of WNT signaling in the tumor on the proximal immune cells can be reversed by pharmacological inhibition of the WNT pathway. To understand whether the Compound of Formula (I) has effects on the tumor immune microenvironment, we looked at the relationships between immune gene expression and the PD marker AXIN2. By using this marker, we can understand the extent to which the WNT pathway has been inhibited in a given tumor. Instead of focusing on individual genes, we used the geometric average expression of sets of genes (gene signatures) that describe a particular pathway or cellular function. One gene signature is a chemokine signature that is associated with recruitment of CD8+ T-cells [PMID: 19293190] and other signature is associated with activated CD103+ dendritic cells [PMID: 25970248]. Not every subject presented with a strong inhibition of the WNT pathway as evidenced by the fold-changes observed in AXIN2 expression. […] These dendritic cells, when stimulated, function to recruit T-cells to the tumor. Importantly, this observation was made after 15 days of exposure to the Wnt inhibitor, which supported that intermittent dosing of the Compound of Formula (I) could be combined with a checkpoint inhibitor to stimulate an anti-tumor immune response in the context of tumors that previously had lacked immune infiltrate. […] The changes in AXIN2 expression were fitted by linear model to immune signature changes. […] Both are in log 2 scale. A positive value indicates an increase in the average expression of the genes in a given signature or in AXIN2. […] Second, a relationship between interferon gamma (or type II interferon) and AXIN2 inhibition was observed. Interferon gamma is typically expressed by CD8+ T-cells. […]

[3] = animal toxicity studies in rat
From the text: Recently, the secreted glycoproteins R-spondins 1-4 (RSPO1-4) have emerged as important activators of canonical Wnt signaling. RSPOs bind to leucine-rich repeat-containing G-protein-coupled receptors (LGR4-6) and the transmembrane E3 ubiquitin ligases RING finger 43/zinc and RING finger 3 (RNF43/ZNRF3), forming a ternary complex (Chen et al. Genes Dev; 2013, 27, 1345). RNF43/ZNRF3 antagonize Wnt signaling by promoting the turnover of Fz and LRP6 (Hao et al. Nature 2012, 485 (7397), 195-200; Koo et al. Nature, 2012, 488 (7413), 665). Binding of RSPO induces the endocytosis of RNF43/ZNRF3, thereby increasing levels of membrane-bound Fz and LRP6 and enhancing Wnt ligand-mediated signaling. In order to activate signaling within target cells, Wnt proteins must be properly secreted and transported across the extracellular space. Porcupine is a membrane-bound-O-acyltransferase (MBOAT) that adds palmitoyl groups to Wnt proteins (Takada et al. Dev. Cell 2006, 11, 791). Mutations in components of the canonical Wnt pathway such as APC and β-catenin play important roles in the pathogenesis of some malignancies and those genetic lesions affect upstream Wnt pathway regulation. The inhibition of the Wnt pathway signaling was recently associated with several drawbacks such as side effects and dose limiting toxicities. Such drawbacks were limiting the anti-tumor efficacy of Wnt inhibitors. Separately, activation of the Wnt pathway was linked to resistance to immunotherapy and offers a mechanism by which tumors can evade immune detection and decrease clinical benefit to check-point inhibitors (Spranger et al. Nature 2015, 523, 231). For example, the Wnt inhibitor of the present disclosure, namely 2-(2′,3-dimethyl-[2,4′-bipyridin]-5-yl)-N-(5-(pyrazin-2-yl)pyridin-2-yl)acetamide was tested and the levels of pLRP6 and AXIN2qPCR were analyzed in biopsies of skin and tumors.

Wnt pathway = experiment: pLRP6 and AXIN2 qPCR levels in biopsies of skin and tumors after treatment; type: in vivo, human; details: post-treatment skin sample biopsies
From the text: as §1

[4] = animal toxicity studies in dog; details: dogs
[5] = clinical study of the Wnt inhibitor: bone events; type: in vivo, human; details: patients
From the text: The Wnt signaling pathway is required for development and survival of osteoblasts (involved in bone formation) and negatively regulates osteoclasts (involved in bone resorption). […] In addition, the short intermittent dosing of Wnt inhibitor was sufficient to result in upregulation of the activated dendritic cells signature. This is relevant because this subtype of dendritic cell is important for recruiting and activating T cells for an anti-tumoral response. Inhibition of the Wnt signaling in cancer treatment improves the response rate to PD-1 inhibition through release of inhibition of dendritic cells and T-cell activation. Overall, the combination of the Wnt inhibitor (i) and an anti-PD-1 antibody molecule, wherein Wnt inhibitor is administered only at the beginning of the treatment cycle for, e.g. 8 or 15 days, can show mutually coordinated effect of both compounds and offer better efficacy and […] safety profile compared to, for example, use of the Wnt inhibitor (i) alone.

[6] = dog, in vivo

## PDR001: anti-PD-1 antibody molecule with VH and VL CDR sequences of BAP049-Clone-E, described in PCT/CN2016/099494
[1]
  RP2D: dose of 400 mg Q4W is the RP2D determined within the CPDR001X2101

## Cc1cc(-c2ncc(CC(=O)Nc3ccc(-c4cnccn4)cn3)cc2C)ccn1 [Compound of Formula (I), 2-(2′,3-dimethyl-[2,4′-bipyridin]-5-yl)-N-(5-(pyrazin-2-yl)pyridin-2-yl)acetamide]
tumor
  cytotoxic gene signature: increased
  tumor efficacy: lack of tumor efficacy
[2]; after 15 days of exposure
  surrounding dendritic cell population on pharmacological inhibition of the WNT pathway: concomitant stimulation
[2]
  relationship between AXIN2 inhibition and increased expression of the dendritic cell signature (CD103+): fairly linear relationship
  relationship between AXIN2 inhibition and increased expression of the chemokine signature (CD8+ T-cell recruitment): fairly linear relationship
[2]; listed as Wnt inhibitor (i)
  relationship between AXIN2 inhibition and increased expression of the dendritic cell signature (CD103+): fairly linear relationships
  relationship between AXIN2 inhibition and increased expression of the chemokine signature (CD8+ T-cell recruitment): fairly linear relationships
[2]; listed as WNT inhibitor (i)
  relationship between AXIN2 inhibition and increased expression of the chemokine signature (CD8+ T-cell recruitment): linear relationship
[2]; log 2 scale, FIG. 4
  relationship between AXIN2 inhibition and T-regulation (T-reg) signature: modest inverse relationship
  relationship between AXIN2 inhibition and mast cell signature: modest inverse relationship
  relationship between type I interferon signature and AXIN2 inhibition: weak relationship
[2]; patient tumor biopsies
  immune cell infiltrates in the tumor-immune microenvironment: increasing immune cell infiltrates
  inhibition of CD103+ dendritic cells: alleviating the inhibition of CD103+ dendritic cells
[2]; patients, Wnt inhibitor alone
  immune signatures in tumors: changes in immune signatures in tumors
[2]; short intermittent dosing
  activated dendritic cells signature: upregulation
[3]; rat studies
  trabeculae: decrease in trabeculae
[3]; rat, in vivo
  toxicities (organs affected): toxicities in gastrointestinal (GI) tract, bones and teeth
[3]; rats
  effects on bone marrow: secondary effects
Wnt pathway
  level of AXIN2 (qPCR): inhibited
  level of pLRP6: inhibited
[4]
  effects on kidneys: secondary effects
[5]
  bone fractures: some patients experienced bone fractures
[6]
  toxicities (organs affected): toxicities in gastrointestinal (GI) tract, bones and teeth
